# Results published in patent US6831199B1, “Pyrimidine compounds and derivatives thereof” (G. D. Searle & Co., priority 1995, dated 2004).
# Where a name gives a salt, the structure may show the parent alone. Read-outs that look alike come from different tables or passages of the source.
# What was measured:
# [1] = test system: platelet rich plasma; assay: Human platelet rich plasma assay (ADP induced platelet aggregation); format: cell-based; conditions: read-out: Human PRP
# Procedure, shortened: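 Citrated platelet-rich plasma from aspirin-free healthy human donors was stirred at 37 °C and preincubated with compound for 1 min. Aggregation was then triggered with ADP (added as a 200 uM solution) and recorded photometrically for 3 min. Dose–response curves were built from % inhibition of the maximal saline-control response.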
# [2] = target: T1, Human fibrinogen receptor (αIIbβ3) (Homo sapiens, UniProt P05106+P08514); assay: Purified IIb/IIIa receptor assay (solid phase receptor assay, competition with biotinylated vitronectin); format: binding
# T1 construct: Human fibrinogen receptor (αIIbβ3) was purified from outdated platelets; from tissue; host or cells: outdated human platelets
# Procedure, shortened: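 Purified platelet αIIbβ3 coated overnight at 4 °C in TBS with 1.0 mM Ca/Mg/Mn, pH 7.4, then BSA-blocked. Compounds (top 1.0×10^−4 M) competed with 1 nM biotinylated vitronectin for 2 h at room temperature. Bound label detected by HRP anti-biotin, A450; values normalized to no-competitor controls, four-parameter fit.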
# [3] = target: T2, Human vitronectin receptor (αvβ3) (Homo sapiens, UniProt P05106+P06756); assay: Vitronectin adhesion assay (solid phase receptor assay, competition with biotinylated vitronectin); format: binding
# T2 construct: Human vitronectin receptor (αvβ3) was purified from human placenta; from tissue; host or cells: human placenta
# Procedure, shortened: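 Purified human αvβ3 coated overnight at 4 °C in TBS with 1.0 mM Ca++, Mg++, Mn++, pH 7.4; compounds (top final 1.0×10^−4 M) competed with 1 nM biotinylated vitronectin for 2 h at room temperature. Bound ligand detected by HRP anti-biotin/OPD at A450; values normalized to no-competitor controls, four-parameter curve fit.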
# [4] = test system: M21 human melanoma cells; assay: M21 melanoma cell adhesion assay (αvβ3-dependent adhesion to human fibrinogen-coated plates); format: cell-based
# Procedure: M21 MELANOMA CELL ADHESION ASSASY
# This assay involves an αvβ3-dependent adhesion of M21 human melanoma cells to human fibrinogen-coated plastic tissue culture dishes.
# Fibrinogen was purified from human plasma. Fibronectin and plasminogen were eliminated from the preparation by passing the sample over gelatin-sepharose 4B and lysine-sepharose 4B resins, respectively. The fibrinogen is diluted to 10 μg/mL in coating buffer ([…] Tris-HCl, 150 mM NaCl, pH 7.4). 100 μL of diluted fibrinogen is added to each well of a 96-well Immulon 2 microtiter plate (Dynatech; Chantilly, Va.) and allowed to coat overnight at 4° C. Plates are blocked with 1% BSA (Miles/Pentex; Kankakee, Ill.) in adhesion buffer (Hank's balanced salt solution without Ca^++ or Mg^++ [HBSS−−], 50 mM Hepes, 1 mg/mL BSA, pH 7.4) for 1 hour at 37° C.
# M21 human melanoma cells were provided by Dr. J. Smith, La Jolla Cancer Research Institute. M21 cells are harvested from tissue culture flasks by washing with HBSS−− and adding cell dissociation solution (Sigma) and incubating for 5 minutes at 37° C. Harvested cells are washed 3 times with adhesion assay buffer containing 200 μM Mn^++. Cells are counted and suspended to a density of 2×10^6/mL in adhesion assay buffer containing 200 μM Mn^++. M21 cells are pre-incubated with antagonists of αvβ3 for 30 minutes at room temperature. Following the pre-incubation, the solutions containing a mixture of cells and antagonists are added to each well of the microtiter plate and allowed to bind for 30 minutes at 37° C.
# Following adhesion, plates are gently washed 3 times with 200 μL of wash buffer (50 mM Tris-HCl, 150 mM NaCl, pH 7.4) using large bore pipet tips. Plates are briefly blotted dry and 100 μL of cell lysis buffer (50 mM sodium acetate, pH 5.0, 0.5% Triton X-100, 0.3 mg/mL p-nitrophenyl phosphate [Sigma] is added to each well. Plates are incubated for 60 minutes at 37° C. and 50 μL of 1N NaOH is added to stop the reaction. The absorbance of the wells at […] is read using an automatic plate reader.
# [5] = Homo sapiens, M21, read-out: M21 Melanoma Cells IC50
# [6] = ADP induced platelet aggregation in human platelet rich plasma
# [7] = trifluoroacetate salt; read-out: M21 Melanoma Cells IC50
# [8] = Homo sapiens, M21; read-out: M21 Melanoma Cells IC50
Structure (SMILES),"IC50 ([1]; Homo sapiens, Platelet)","IC50 [4, 5]",IC50 ([2]; read-out: IIb/IIIa IC50),IC50 ([3]; read-out: AvB3 IC50),"IC50 [4, 7]",other results
"N=C(N)Nc1cccc(C(=O)NCC(=O)N[C@H](COC(=O)c2ccccc2N)CC(=O)O)c1 [Example 94, 2S-[[2-[[[3-[[aminoiminomethyl]amino]phenyl]carbonyl]amino]acetyl]amino]-3-carboxypropyl 2-aminobenzoate, bis(trifluoroacetate)salt, monohydrate]",> 200000 nM,1 nM,–,–,–,IC50 ([2]; IIb/IIIa IC50): 101 nM; IC50 ([3]; AvB3 IC50): 1.16 nM
"NC(=O)Nc1cccc(C(=O)NCC(=O)NC(CC(=O)O)c2cccnc2)c1 (stereo not drawn) [Example 110, β-[[2-[[[3-(aminocarbonylamino)phenyl]carbonyl]amino]acetyl]amino]pyridine-3-propanoic acid, trifluoroacetate salt]",–,–,1860 nM,4.5 nM,177 nM,"IC50 [1, 6]: > 200000 nM"
"C#C[C@H](CC(=O)O)NC(=O)CNC(=O)c1cccc(NC(=N)N)c1 [Example 69, 3S-[[2-[[[3-[(aminoiminomethyl)amino]phenyl]carbonyl]amino]acetyl]amino]-4-pentynoic acid, trifluoroacetate salt]",–,–,33.6 nM,0.92 nM,0.95 nM,"IC50 ([1]; ADP induced platelet aggregation in human platelet rich plasma, trifluoroacetate salt): > 200000 nM"
"O=C(O)CC(NC(=O)CNC(=O)c1cccc(NC(=O)NCc2ccccc2)c1)c1ccccc1 (stereo not drawn) [Example 119, β-[[2-[[[3-[[[(phenylmethyl)amino]carbonyl]amino]phenyl]carbonyl]amino]acetyl]amino]benzenepropanoic acid]",> 20000 nM,90.4 nM,11100 nM,3.61 nM,–,–
"C#C[C@@H](CC(=O)O)NC(=O)CNC(=O)c1cccc(NC(=N)N)c1 [Example 70, 3R-[[2-[[[3-[(aminoiminomethyl)amino]phenyl]carbonyl]amino]acetyl]amino]-4-pentynoic acid, trifluoroacetate salt]",–,–,3240 nM,63 nM,924 nM,"IC50 [1, 6]: > 200000 nM"
"N=C(N)Nc1cccc(C(=O)NCC(=O)NCCC(=O)O)c1 [Example 97, N-[2-[[[3-[(aminoiminomethyl)amino]phenyl]carbonyl]amino]acetyl]-β-alanine]",–,–,1170 nM,26.9 nM,–,"IC50 [4, 8]: 163 nM"
"CCOC(=O)CC(NC(=O)CNC(=O)c1cccc(NC(=N)N)c1)c1ccccc1 (racemic) [Example 3, (±)ethyl β-[[2-[[[3-[(aminoiminomethyl)amino]phenyl]carbonyl]amino]acetyl]amino]benzenepropanoate, trifluoroacetate salt]",–,–,72900 nM,498 nM,–,"IC50 [4, 8]: 3050 nM"
"N=C(N)Nc1cccc(C(=O)NCC(=O)NC(CC(=O)O)c2cccnc2)c1 (racemic) [Example 2, (±)β-[[2-[[[3-[(aminoiminomethyl)amino]phenyl]carbonyl]amino]acetyl]amino]pyridine-3-propanoic acid, bis(trifluoroacetate)salt]",200000 nM,0.25 nM,51.2 nM,0.54 nM,–,–
"O=C(O)CC(NC(=O)CNC(=O)c1cccc(NC(=O)Nc2ccccc2)c1)c1ccc2c(c1)OCO2 (stereo not drawn) [Example 124, β-[[2-[[[3-3-[[(phenylamino]carbonyl]amino]phenyl]carbonyl]amino]acetyl]amino]-1,3-benzodioxole-5-propanoic acid]",–,–,317 nM,22 nM,–,"IC50 ([1]; Homo sapiens, Platelet, ADP induced platelet aggregation in human platelet rich plasma): > 20000 nM"
"O=C(O)CC(NC(=O)CNC(=O)c1cccc(NC(=O)NCc2ccccc2)c1)c1cccnc1 (racemic) [Example 106, (±)β-[[2-[[[3-[[[(phenylmethyl)amino]carbonyl]aminophenyl]carbonyl]amino]acetyl]-amino]pyridine-3-propanoic acid]",–,–,3140 nM,0.79 nM,–,IC50 ([4]; read-out: M21 Melanoma Cells IC50): 0.81 nM
